The values that follow come from US20240374763A1, “DIAGNOSIS AND MONITORING USING EXTRADOMAIN-B FIBRONECTIN TARGETED PROBES” (Case Western Reserve University, priority 2020, published 2024).

No end group written: not given here.

Data set [1] has as its system PANC-1-GFP-Luc intrapancreatic tumor xenografts. The data set can be described thus: MRMI of PANC-1-GFP-Luc intrapancreatic tumor xenografts. The format is in vivo, mice. The following applies: 0.1 mmol/kg, 10 min postinjection. Here is the method:
(§1) For flank xenograft models, 4×10^6 Capan-1 cells suspended in 100 μL of a 6 mg/mL Matrigel (Corning, Corning, NY) solution was injected subcutaneously into the flank of eight-week-old female nu/nu mice. The tumor bearing mice were imaged after tumor volumes exceeded 300 mm^3. For orthotopic intrapancreatic models, the pancreas of four-week-old female nu/nu mice were surgically exposed and 1×10^6 BxPC3-GFP-Luc or PANC-1-GFP-Luc cells suspended in 100 μL of an Matrigel solution (6 mg/mL) was injected into the pancreatic tissue. Prior to imaging, growth of tumor was verified by bioluminescence imaging with intraperitoneal injection of d-luciferin on IVIS Spectrum system (Perkin Elmer, Waltham, MA).
(§2) Mice bearing intrapancreatic tumors were anesthetized and a tail vein catheter was inserted. Image acquisition was performed on a MR Solutions 3T MRS 3000 scanner with a mouse radiofrequency coil. Axial images were obtained using a Fast Spin Echo (FSE) MRI sequence (305 ms TR, 11 ms TE, 90° F.A, 4 cm×4 cm FOV, 1 mm slice thickness, 10 slices, echo train length=4, echo spacing=11 ms, 4 averages, 256×256 matrix, […] cm/pixel resolution) with respiratory gating. Images were acquired before contrast and at different time points after contrast injection at a dose of 0.1 mmol/kg (100 μL). For competitive binding experiments, a 5:1 molar ratio of free ZD2 peptide to MT218 was injected in mice bearing intrapancreatic BxPC3 tumor xenografts (n=3) at a dose of 0.1 mmol MT218/kg (100 μL). Images obtained on the MR Solutions 3T scanner were normalized using the Surscalereader.exe (MR Solutions, Guildford, UK) program supplied.
Image files were exported and analyzed in Horus software. ROIs were drawn in the tumor, liver, kidney, and muscle. […] The contrast-to-noise ratio of the tumor (CNR) was calculated using the following equation, where σ_noise is the standard deviation of intensities from an ROI drawn outside of the mouse body: […]

The next data set concerns SCC4 tumors. Nature of the data set: MRMI of OSCC flank xenografts, SCC4. The class given is in vivo, mice. The note with it: gadoteridol 0.10 mmol/kg. The procedure:
(§3) Animal experiments were performed under an animal protocol approved by the Institutional Animal Care and Use Committee (IACUC) at Case Western Reserve University (CWRU, Cleveland, OH, USA). Female 4-week-old athymic nude mice purchased from the Jackson Laboratory (Bar Harbor, ME, USA) were housed in the Animal Core Facility at CWRU. Anesthetized mice were subcutaneously inoculated in the right flank with 4×10^6 GFP/luciferase-expressing OSCC cells (n=5 per cell line) in 100 μL of a 1:1 mixture of Matrigel HC (Corning) and DPBS. Tumor size was monitored with caliper measurements. After 4 weeks of growth, tumors were sufficiently large for MRI experiments.
MRI experiments were performed with a 3T MRS-3000 system (MR Solutions, Surrey, UK). […] This protocol was repeated on the same mice 2 days later using the untargeted clinical agent gadoteridol at the clinical dose of 0.10 mmol/kg.
(§4) Images were exported in DICOM format and analyzed using FIJI. Contrast-to-noise ratio (CNR) for each time point was calculated as the difference between the mean tumor intensity and the mean muscle intensity, divided by the standard deviation of noise.

For data set [2], the system named is Capan-1 flank tumor xenografts. Nature of the data set: MRMI of Capan-1 flank tumor xenografts. The class given is in vivo, mice. The following applies: 0.1 mmol/kg; MT218 at 15 minutes post-injection, maintained at least 35 minutes; Gd(HP-DO3A) for the duration of the experiment. Here is the method:
as §1
Flank tumor-bearing mice were anesthetized and a tail vein catheter inserted. MR image acquisition was performed on a 7T Biospin (Bruker, Billerica, MA) preclinical small animal scanner with a volume radiofrequency coil. Axial images were obtained using a multi-spin multi-echo (MSME) MRI sequence (500 ms TR, 8.1 ms TE, 900 FA, 4.50 cm×4.50 cm FOV, 1.50 mm slice thickness, 16 slices, 2 averages, 200×200 matrix, 0.0225×0.0225 cm/pixel resolution). Contrast agents were injected at a dose of 0.1 mmol/kg (100 μL) via the tail vein catheter, followed by a saline flush. Images of the tumors were acquired before contrast and at various time points after contrast administration. Gd(HP-DO3A) was used as a control.
Image files were exported and analyzed in Horus software. ROIs were drawn in the tumor, liver, kidney, and muscle. Muscle ROIs were taken from muscle, with other structures (liver, kidney, tumor) identified after comparison with published images and comparison with anatomical landmarks or bioluminescent imaging. Size of ROIs drawn for image analysis are summarized in Supplemental Table S1. The contrast-to-noise ratio of the tumor (CNR) was calculated using the following equation, where σ_noise is the standard deviation of intensities from an ROI drawn outside of the mouse body: […]

Another data set relates to CAL27 tumors. The data set can be described thus: MRMI of OSCC flank xenografts, CAL27. The class given is in vivo, mice. The following applies: gadoteridol 0.10 mmol/kg. Here is the method:
as §3
MRI experiments were performed with a 3T MRS-3000 system (MR Solutions, Surrey, UK). Tumor-bearing mice were imaged before and at 10, 20, and 30 minutes post-injection of the targeted contrast agent, MT218 (Molecular Theranostics, LLC, Cleveland, OH, USA), at a dose of 0.04 mmol/kg using a T1-weighted fast spin-echo axial sequence with respiratory gating (TR=305 ms, TE=11 ms, FOV=40×40 mm, slice thickness=1 mm, number of slices=15, Nav=2, matrix=256×248). […]
as §4

The test system of data set [3] is BxPC3-GFP-Luc intrapancreatic tumors. The data set can be described thus: MRMI of BxPC3-GFP-Luc intrapancreatic tumors. The format is in vivo, mice. The note with it: 0.1 mmol/kg, 10 min post-injection. The procedure: as §1, §2
Image files were exported and analyzed in Horus software. ROIs were drawn in the tumor, liver, kidney, and muscle. Muscle ROIs were taken from muscle, with other structures (liver, kidney, tumor) identified after comparison with published images and comparison with anatomical landmarks or bioluminescent imaging. Size of ROIs drawn for image analysis are summarized in Supplemental Table S1. The contrast-to-noise ratio of the tumor (CNR) was calculated using the following equation, where σ_noise is the standard deviation of intensities from an ROI drawn outside of the mouse body:
Image contrast was reported as fold enhancement of contrast to noise ratio of postcontrast images over precontrast images using Fold Enhancement=CNRpost/CNRpre. Statistical analysis of CNR was performed in Minitab Express (Minitab Inc, State College, PA). One-way ANOVA with Fisher Individual Tests for Differences of Means post-hoc testing was performed to determine statistical significance between greater than two means (p<0.05). Student's T test was used to determine statistical significance between two means (p<0.05).

Another data set has as its system HSC3 tumors. The data set can be described thus: MRMI of OSCC flank xenografts, HSC3. The format is in vivo, mice. The following applies: gadoteridol 0.10 mmol/kg. Here is the method:
as §3
MRI experiments were performed with a 3T MRS-3000 system (MR Solutions, Surrey, UK). Tumor-bearing mice were imaged before and at 10, 20, […] spin-echo axial sequence with respiratory gating (TR=305 ms, TE=11 ms, FOV=40×40 mm, slice thickness=1 mm, number of slices=15, Nav=2, matrix=256×248). This protocol was repeated on the same mice 2 days later using the untargeted clinical agent gadoteridol at the clinical dose of 0.10 mmol/kg.
as §4

The nature of the next data set: Relaxivity measurements. The format is physicochemical. The note with it: at 3 T, DPBS buffer. The procedure:
The T1 and T2 values of MT218 and Gd(HP-DO3A) solutions were determined using a 3T MRS 3000 scanner (MR Solutions, Guildford, UK). Solutions of MT218 were prepared at concentrations of 0, 0.25, 0.5, 1, and 2 mM in DPBS buffer (Gibco, Gaithersburg, MD). T1 values were measured using an inversion recovery-fast low angle shot (IR-FLASH) sequence (i=10 ms, TE=4 ms, FA=8°, echoes/frames=128, FOV=40 mm×40 mm, slice thickness =2 mm, number of averages=1, time delay=4000 ms, sample period=200, matrix=256×128). T2 values were obtained using a multi-echo multi-slice (MEMS) sequence (TE=15 ms, […], echoes=10, FOV: 40 mm×40 mm, slice thickness=1 mm, number of averages=1, matrix=256×192). The r1 and r2 relaxivities were calculated from the slopes of 1/T1 and 1/T2 vs. Gd concentration plots, respectively.

The next data set relates to DLD1-DR cells. The following applies: DLD1-DR cells developed with resistance to 5′-FU; cited from earlier work.
The next data set concerns DLD-1 cells. The following applies: cited from earlier work.
The target in data set [4] is extradomain-B fibronectin (EDB-FN) (human) (UniProt P02751). Nature of the data set: cell-based or functional assay.
The target in data set [5] is T1, EDB fragment of FN (expressed in E. coli, labelled with NT-647) (UniProt P02751 1266-1356, limits assumed, labelled with amine-reactive dye NT-647).
T1 construct: domain: EDB fragment of FN
Nature of the data set: microscale thermophoresis, NT-647-labelled EDB fragment at fixed concentration, MT218 titrated, 25 °C. Here is the method: (§5) The binding affinity of MT218 was determined with microscale thermophoresis (MST) using a Nanotemper™ Monolith NT.115 instrument (NanoTemper Technologies, Munich, Germany). The EDB fragment of FN was expressed in E. coli, purified, and labelled with amine-reactive dye NT-647. MT218 was dissolved into assay buffer (50 mM PBS w/0.05% Tween-20). This solution was further diluted using assay buffer to give a series of MT218 working solutions. Each MT218 working solution was then mixed with a fixed concentration of fluorescently labeled EDB fragment. The mixtures of MT218 and EDB were then loaded into standard capillaries, and MST measurements were performed at 25° C. using 20-80% light-emitting diode power and 40% infrared-laser power at varying concentrations of MT218.
MT218 is a small molecular conjugate of ZD2 peptide to a macrocyclic clinical MRI contrast agent Gd(HP-DO3A). […] The T₁ and T₂ relaxivities of MT218 were measured to be 6.07±1.13 s⁻¹ mM⁻¹ and 8.20±0.18 s⁻¹ mM⁻¹, respectively, at 3 T. T₁ and T₂ relaxivities of Gd(HP-DO3A) were measured to be 3.20±0.96 s⁻¹ mM⁻¹ and 5.12±0.18 s⁻¹ mM⁻¹, respectively, at 3 T.

Data set [6] deals with T1, EDB fragment of FN (expressed in E. …). The data set can be described thus: microscale thermophoresis, MT218 titrated against a fixed concentration of NT-647-labelled EDB fragment, 25 °C [panel B]. Here is the method:
as §5

T1 sequence (P02751 1266-1356 limits assumed): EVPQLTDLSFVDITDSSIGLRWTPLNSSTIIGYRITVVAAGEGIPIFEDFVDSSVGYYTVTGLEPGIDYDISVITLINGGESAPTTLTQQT
extradomain-B fibronectin (EDB-FN) (human), sequence (P02751 32-2477): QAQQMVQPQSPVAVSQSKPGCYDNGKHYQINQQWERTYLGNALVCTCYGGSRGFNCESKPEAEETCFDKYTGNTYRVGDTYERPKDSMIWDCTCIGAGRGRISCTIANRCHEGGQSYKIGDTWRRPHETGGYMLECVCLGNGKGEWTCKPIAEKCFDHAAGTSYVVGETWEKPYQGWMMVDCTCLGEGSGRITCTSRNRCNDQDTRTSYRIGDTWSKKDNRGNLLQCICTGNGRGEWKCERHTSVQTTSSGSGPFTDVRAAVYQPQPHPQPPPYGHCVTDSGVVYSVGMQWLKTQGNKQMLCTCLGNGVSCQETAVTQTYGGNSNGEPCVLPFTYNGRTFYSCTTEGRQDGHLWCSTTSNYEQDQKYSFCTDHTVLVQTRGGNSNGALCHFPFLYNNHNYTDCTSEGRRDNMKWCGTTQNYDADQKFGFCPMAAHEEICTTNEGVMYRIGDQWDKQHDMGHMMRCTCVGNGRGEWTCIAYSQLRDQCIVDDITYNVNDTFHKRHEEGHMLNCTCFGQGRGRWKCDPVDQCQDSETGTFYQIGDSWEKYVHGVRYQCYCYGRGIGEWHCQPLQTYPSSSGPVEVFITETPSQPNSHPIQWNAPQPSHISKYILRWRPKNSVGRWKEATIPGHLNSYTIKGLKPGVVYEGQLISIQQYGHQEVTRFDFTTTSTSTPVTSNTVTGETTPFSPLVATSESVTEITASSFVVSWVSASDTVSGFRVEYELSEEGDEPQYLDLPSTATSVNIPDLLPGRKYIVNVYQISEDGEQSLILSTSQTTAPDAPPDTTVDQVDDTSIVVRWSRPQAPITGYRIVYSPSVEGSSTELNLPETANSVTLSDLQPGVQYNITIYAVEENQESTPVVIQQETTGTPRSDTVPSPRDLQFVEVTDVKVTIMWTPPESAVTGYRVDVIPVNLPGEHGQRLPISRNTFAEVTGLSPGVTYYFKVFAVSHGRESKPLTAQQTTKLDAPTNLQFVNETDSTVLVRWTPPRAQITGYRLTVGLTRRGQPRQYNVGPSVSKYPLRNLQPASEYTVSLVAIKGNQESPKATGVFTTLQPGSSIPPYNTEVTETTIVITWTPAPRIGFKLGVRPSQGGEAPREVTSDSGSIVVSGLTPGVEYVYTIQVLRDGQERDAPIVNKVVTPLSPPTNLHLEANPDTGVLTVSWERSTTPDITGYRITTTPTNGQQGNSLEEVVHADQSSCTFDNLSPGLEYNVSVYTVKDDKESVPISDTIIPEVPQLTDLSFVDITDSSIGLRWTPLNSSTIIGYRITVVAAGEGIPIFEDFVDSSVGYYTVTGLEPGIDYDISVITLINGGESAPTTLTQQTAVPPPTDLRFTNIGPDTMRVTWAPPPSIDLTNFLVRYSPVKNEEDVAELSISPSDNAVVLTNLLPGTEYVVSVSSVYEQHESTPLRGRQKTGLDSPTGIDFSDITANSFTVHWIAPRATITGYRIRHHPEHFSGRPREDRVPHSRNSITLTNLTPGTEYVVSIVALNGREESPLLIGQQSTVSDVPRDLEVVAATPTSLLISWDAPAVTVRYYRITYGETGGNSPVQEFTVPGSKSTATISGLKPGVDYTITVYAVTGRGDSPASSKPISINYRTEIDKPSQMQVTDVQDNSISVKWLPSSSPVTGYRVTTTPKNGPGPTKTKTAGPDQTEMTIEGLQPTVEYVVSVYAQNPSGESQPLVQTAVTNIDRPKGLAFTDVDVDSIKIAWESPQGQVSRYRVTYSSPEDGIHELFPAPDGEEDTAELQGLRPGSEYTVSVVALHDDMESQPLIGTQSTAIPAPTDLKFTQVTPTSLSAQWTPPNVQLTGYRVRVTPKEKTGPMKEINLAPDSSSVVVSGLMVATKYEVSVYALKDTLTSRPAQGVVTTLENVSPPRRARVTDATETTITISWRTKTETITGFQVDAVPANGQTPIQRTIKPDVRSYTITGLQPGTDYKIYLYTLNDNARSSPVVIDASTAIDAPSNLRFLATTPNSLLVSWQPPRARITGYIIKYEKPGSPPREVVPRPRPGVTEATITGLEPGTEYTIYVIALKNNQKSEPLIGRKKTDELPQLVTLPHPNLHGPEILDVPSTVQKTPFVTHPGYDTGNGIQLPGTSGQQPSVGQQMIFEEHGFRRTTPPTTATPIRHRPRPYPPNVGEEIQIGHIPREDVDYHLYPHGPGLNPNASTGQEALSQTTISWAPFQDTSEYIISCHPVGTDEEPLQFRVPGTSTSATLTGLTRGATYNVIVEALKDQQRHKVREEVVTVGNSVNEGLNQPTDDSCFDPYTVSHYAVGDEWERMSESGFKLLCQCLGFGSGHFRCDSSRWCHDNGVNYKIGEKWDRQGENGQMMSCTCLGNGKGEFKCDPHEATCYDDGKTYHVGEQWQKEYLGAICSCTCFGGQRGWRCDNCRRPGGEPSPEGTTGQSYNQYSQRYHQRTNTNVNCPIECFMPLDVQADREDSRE

Regarding “Gd(HP-DO3A) [gadoteridol, reference compound]”, the “intratumoral CNR increase” value in data set [1] is 2.35 fold. Further, the entries for the “average maximum enhancement (CNR)” value in the data set with SCC4 tumors, in the data set on CAL27 tumors and with HSC3 tumors were 2.57±0.28, 2.27±0.18 and 2.18±0.07, respectively. For the same molecule, the “increase of contrast to noise ratio (CNR)” value in [2] is recorded as 1.77 fold. Besides, the “tumor CNR increase” value in data set [3] is listed as “approximately 2.5 fold”. The molecule further had a T1 relaxivity in “Relaxivity measurements” of 3.20 ± 0.96 s⁻¹ mM⁻¹. The T2 relaxivity in the data set “Relaxivity measurements” was 5.12 ± 0.18 s⁻¹ mM⁻¹.

What is called IC50 is the concentration needed to halve the response being measured. Turning to `O=c1[nH]cc(F)c(=O)[nH]1` [5′-FU, 5′-fluorouracil], the IC50 in the data set with DLD1-DR cells is 211 µM; in the data set on DLD-1 cells it was 2.5 µM.

B1: ZD2-N3-Gd(HP-DO3A) (MT218) (peptide)
peptide: TVRTSAD
modifications: also: conjugated to Gd(HP-DO3A) by click reaction of alkynyl-ZD2 with N3-Gd(HP-DO3A), residue of attachment not given here, Gd complex
notes: Small peptide conjugate of the clinical contrast agent gadoteridol; also called EDB-FN-targeted contrast agent; ZD2 targeted MRI contrast agent
The Kd is the constant that tells how readily two partners part at equilibrium. By EC50 (read off the curve) is commonly meant the concentration needed to bring the measured effect to its halfway point. In data set [4], B1 registered a tumor CNR increase (MRMI) in the BxPC3-GFP-Luc intrapancreatic model, MT218 co-injected with an excess of free ZD2 peptide of 2.5 fold and a tumor CNR increase (MRMI) in the BxPC3-GFP-Luc intrapancreatic model, MT218 without the free peptide of 4.5 fold. The Kd in data set [5] was 3.2 µM. In data set [6], the “EC50 (read off the curve)” value was approximately 3 µM.
